We go through 37 compounds from patent US9701711B2, “Modulators of protease activated receptors” (THE UNIVERSITY OF QUEENSLAND, priority 2010, dated 2017).

The EC50 is the concentration giving half of the maximal effect. One may read the IC50 as the point on the concentration scale where inhibition reaches its midpoint.

“And” between values parts separate entries of the source, which are not always exact repeats. Equal entries are not always repeated. Where two headings read alike, the source gives them in different places.

The target in assay [1] is T1, PAR2 (Homo sapiens, UniProt P55085).
T1 sequence (P55085 26-397): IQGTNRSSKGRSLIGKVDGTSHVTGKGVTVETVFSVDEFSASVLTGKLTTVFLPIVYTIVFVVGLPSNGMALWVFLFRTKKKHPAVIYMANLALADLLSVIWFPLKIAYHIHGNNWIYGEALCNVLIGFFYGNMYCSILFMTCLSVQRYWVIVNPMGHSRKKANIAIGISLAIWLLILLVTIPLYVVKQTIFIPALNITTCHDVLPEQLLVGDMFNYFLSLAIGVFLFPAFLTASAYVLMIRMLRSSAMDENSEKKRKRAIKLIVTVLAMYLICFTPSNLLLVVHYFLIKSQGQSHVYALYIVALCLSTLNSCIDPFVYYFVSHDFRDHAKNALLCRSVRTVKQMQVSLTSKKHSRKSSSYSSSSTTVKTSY
The experiment in a line: PAR2 activation (agonist) by intracellular calcium mobilisation in HT29 cells. On the set-up: Agonists of Ca^2+ release in HT29 cells; endogenous in cells; host or cells: HT29 (human cell line, cultured per ATCC information). In kind it is cell-based. The settings on record: for EC50: Fluo-3 fluorescence. The text has this:
(§1) The ability of the compounds of the present invention to activate PAR2 may be assessed via calcium mobilisation assays. It is appreciated that compounds that activate the release of intracellular calcium from one type of cell are agonists or partial agonists, while those that inhibit such release may be antagonists. […] The general assay protocols may vary slightly depending on the chosen cell line. In general, during cell culture passage, cell dissociation solution (CDS, Sigma Aldrich) is used to replace trypsin to dissociate cells from surface. Lipopolysaccharide (LPS) and trypsin are purchased from Sigma Aldrich. […] ELISA sets are purchased from BD Pharmingen (San Jose, Calif.) and cytokine array kits are purchased from RayBiotecho (Norcross, Ga.).
(§2) Cells are seeded overnight in 96-well black walled, clear bottomed, plate at approximately 2×10^4 to 4×10^5 cells per well. […] The cells are then washed twice with HBSS and transferred to a Polarstar spectrotluorimeter (BMG, Durham N.C.).
HBSS is prepared in-house and all other reagents are purchased from Invitrogen, Carlsbad. Plates are supplied by DKSH, Zurich. Calcimycin (A23187, Invitrogen) is used to measure maximum fluorescence, with individual results normalized accordingly.
Three different concentrations of 6 added to HT29 cells at room temperature. Duplicate measurements were made for each data point, accordingly, each data point represents mean±SEM. Net changes in fluorescence were calculated as a percentage relative to the maximum response given by 100 μM of the PAR2 agonist 2f-LIGRLO-NH2.
(In general: A change in cytosolic calcium serves as a functional read-out for many receptors and channels.)

For assay [2], the target named is T1, PAR2. Description: PAR2 agonist inhibition (antagonism) by intracellular Ca2+ release in HT29 cells. In kind it is cell-based. On the set-up: Agonists of Ca^2+ release in HT29 cells; endogenous in cells; host or cells: HT29 (human cell line, cultured per ATCC information).
Excerpt: as §1, §2
The cells are prepared as outlined above then treated with the “putative” antagonist 30 min prior to the addition of either trypsin or a synthetic agonist at a concentration equal to the agonists ED80.
The cells were then treated with 1 μM of the PAR2 agonist 2f-LIGRLO-NH2 (FIG. 2A. n=5) or 100 nM Trypsin (FIG. 2B, n=1). Each data point represents mean±SEM. Net changes in fluorescence were calculated as a percentage relative to the maximum response given 1 μM 2f-LIGRLO-NH2 or 100 nM Trypsin. Changes in fluorescence (% response) were plotted against logarithmic compound concentrations. The half maximal inhibitory concentration (IC50) values were derived from the dose response curve using a nonlinear regression curve in Graphpad Prism v5.

Setting [3] is: read-out: EC50, agonist or partial agonist of Ca2+ release in HT29 cells.
Where [4] appears, read: EC50, agonist or partial agonist of Ca2+ release in HT29 cells.
[5] abbreviates: HT29 cells, 30 min pre-incubation, then PAR2 agonist (1 μM 2f-LIGRLO-NH2), read-out: IC50, inhibition of Ca2+ release in HT29 cells.

Consider `CC[C@H](C)[C@H](NC(=O)[C@H](CC1CCCCC1)NC(=O)c1ccno1)C(=O)NCc1ccccc1` [Compound 3], for which, at PAR2 [1] (setting [3]), the EC50 is 30 µM. Same read-out and setting: as for `CC[C@H](C)[C@H](NC(=O)[C@H](CC1CCCCC1)NC(=O)c1ccno1)C(=O)NCc1ccc(OC)cc1` [Compound 4], the figure is 10 µM; as for `CC[C@H](C)[C@H](NC(=O)[C@H](CC1CCCCC1)NC(=O)c1ccno1)C(=O)NCc1ccccc1Cl` [Compound 5], 10 µM. As to `CC[C@H](C)[C@H](NC(=O)[C@H](CC1CCCCC1)NC(=O)c1ccno1)C(=O)NCc1ccccc1F` [Compound 6, 5-isoxazoyl-Cha-Ile-aminomethyl-(2-fluoro)phenyl], the EC50 on PAR2 [1] (setting [3]) was ~30 µM and 30 µM. In addition, on PAR2 [1] (HT-29, compound at 30 μM, room temperature, read-out: Response relative to the maximum response given by 100 μM 2f-LIGRLO-NH2), the Emax at 30 µM was ≤ 50%. In the case of `CC[C@H](C)[C@H](NC(=O)[C@H](CC1CCCCC1)NC(=O)c1ccno1)C(=O)NCc1cccc(F)c1` [Compound 7], the EC50 on PAR2 [1] (setting [3]) was found to be 40 µM. Turning to `CC[C@H](C)[C@H](NC(=O)[C@H](CC1CCCCC1)NC(=O)c1ccno1)C(=O)NCc1ccc(F)cc1` [Compound 8], at PAR2 [1] (setting [3]), the EC50 was determined as 40 µM. Same read-out and setting: as for `CC[C@H](C)[C@H](NC(=O)[C@H](CC1CCCCC1)NC(=O)c1ccno1)C(=O)NCc1ccccc1[N+](=O)[O-]` [Compound 9], the figure is 10 µM. As to `CC[C@H](C)[C@H](NC(=O)[C@H](CC1CCCCC1)NC(=O)c1ccno1)C(=O)N1CCN(c2ccc(F)cc2)CC1` [Compound 10], the EC50 on PAR2 [1] (setting [3]) was found to be 10 µM. On to `CC[C@H](C)[C@H](NC(=O)[C@H](CC1CCCCC1)NC(=O)c1ccno1)C(=O)N1CCc2cc(OC)c(OC)cc2C1` [Compound 11], for which the EC50 at PAR2 [1] (setting [3]) lay in the range of 5 to 10 µM. Still for that read-out and setting: the value for `CC[C@H](C)[C@H](NC(=O)[C@H](CC1CCCCC1)NC(=O)c1ccno1)C(=O)N1CCC(NC(C)=O)(c2ccccc2)CC1` [Compound 12] was 1 to 6 µM; that for `CC[C@H](C)[C@H](NC(=O)[C@H](CC1CCCCC1)NC(=O)c1ccno1)C(=O)N1CCC2(CC1)CN(S(C)(=O)=O)c1ccccc12` [Compound 13] was 1.8 µM.

As to `CC[C@H](C)[C@H](NC(=O)[C@H](CC1CCCCC1)NC(=O)c1ccno1)C(=O)N1CCC2(CC1)OC(=O)c1ccccc12` [Compound 14], the EC50 on PAR2 [1] (setting [4]) came out at 1.3 µM. Turning to `CC[C@H](C)[C@H](NC(=O)[C@H](CC1CCCCC1)NC(=O)c1ccno1)C(=O)N1CCC2(CC1)CC(=O)c1ccccc1O2` [Compound 15], the EC50 at PAR2 [1] (setting [4]) came to 0.76 µM.

Take `CC[C@H](C)[C@H](NC(=O)[C@H](CC1CCCCC1)NC(=O)c1ccno1)C(=O)N1CCC2(CC1)c1ccccc1C(O)C2O` (some centres unmarked) [Compound 16]: at PAR2 [1] (setting [3]), the EC50 lay in the range of 5 to 7 µM.

Consider `CC[C@H](C)[C@H](NC(=O)[C@H](CC1CCCCC1)NC(=O)c1ccno1)C(=O)N1CCC2(CC1)c1ccccc1C(NCc1ccc(F)cc1)C2O` (some centres unmarked) [Compound 17], for which the EC50 at PAR2 [1] (setting [3]) came to 20 µM.

`CC[C@H](C)[C@H](NC(=O)[C@H](CC1CCCCC1)NC(=O)c1ccno1)C(=O)NCc1cccc(OC)c1` [Compound 19]: the IC50 on PAR2 [2] (setting [5]) was determined as 0.5 ± 0.1 µM. The same measure, in the same setting: as for `CC[C@H](C)[C@H](NC(=O)[C@H](CC1CCCCC1)NC(=O)c1ccno1)C(=O)NCc1ccccc1C` [Compound 20], the figure is 0.5 ± 0.1 µM; as for `CCOc1ccccc1CNC(=O)[C@@H](NC(=O)[C@H](CC1CCCCC1)NC(=O)c1ccno1)[C@@H](C)CC` [Compound 21], 0.7 ± 0.1 µM; as for `CCCOc1ccccc1CNC(=O)[C@@H](NC(=O)[C@H](CC1CCCCC1)NC(=O)c1ccno1)[C@@H](C)CC` [Compound 22], 2 µM. In the case of `CCCCOc1ccccc1CNC(=O)[C@@H](NC(=O)[C@H](CC1CCCCC1)NC(=O)c1ccno1)[C@@H](C)CC` [Compound 23], on PAR2 [2] (setting [5]), the IC50 came to 40 µM.

On to `CC[C@H](C)[C@H](NC(=O)[C@H](CC1CCCCC1)NC(=O)c1ccno1)C(=O)NCc1ccccc1OC(C)C` [Compound 24, 5-isoxazoyl-Cha-Ile-aminomethyl-(2-isopropoxy)phenyl], for which the IC50 on PAR2 [2] (setting [5]) was 1.3 ± 0.1 µM.

In the case of `CCC(C)Oc1ccccc1CNC(=O)[C@@H](NC(=O)[C@H](CC1CCCCC1)NC(=O)c1ccno1)[C@@H](C)CC` (some centres unmarked) [Compound 25], on PAR2 [2], the IC50 stood at 1.6 ± 0.4 µM. As to `CC[C@H](C)[C@H](NC(=O)[C@H](CC1CCCCC1)NC(=O)c1ccno1)C(=O)NCc1cccc2c1OCO2` [Compound 26, 5-isoxazoyl-Cha-Ile-aminomethyl-(1,3-dioxalane)phenyl], the IC50 on PAR2 [2] (setting [5]) was found to be 0.4 ± 0.1 µM. On the same count and under the same terms, as for `CC[C@H](C)[C@H](NC(=O)[C@H](CC1CCCCC1)NC(=O)c1ccno1)C(=O)NCc1ccc(Cl)c(Cl)c1` [Compound 27, 5-isoxazoyl-Cha-Ile-aminomethyl-(3,4-dichloro)phenyl], the figure is 1.4 ± 0.8 µM. Take `CC[C@H](C)[C@H](NC(=O)[C@H](CC1CCCCC1)NC(=O)c1ccno1)C(=O)NCc1ccccc1C(F)(F)F` [Compound 28]: on PAR2 [2] (setting [5]), the IC50 was in the range of 1 to 2 µM. As for `CC[C@H](C)[C@H](NC(=O)[C@H](CC1CCCCC1)NC(=O)c1ccno1)C(=O)NCc1cccc(C(=O)N2CCC(NCCN)(C(=O)NCc3ccccc3)CC2)c1` [Compound 29], the IC50 on PAR2 [2] (setting [5]) turned out to be 0.7 µM. The same measure, in the same setting: the value for `CC[C@H](C)[C@H](NC(=O)[C@H](CC1CCCCC1)NC(=O)c1ccno1)C(=O)N1CCC(c2ccc(OC)cc2)CC1` [Compound 31] was 10 µM; that for `CC[C@H](C)[C@H](NC(=O)[C@H](CC1CCCCC1)NC(=O)c1ccno1)C(=O)N1CCC(c2cc(OC)ccc2OC)CC1` [Compound 32] was 5 to 10 µM; that for `CC[C@H](C)[C@H](NC(=O)[C@H](CC1CCCCC1)NC(=O)c1ccno1)C(=O)N1CCC(c2ccccc2C(F)(F)F)CC1` [Compound 33] was 10 µM. The same measure, in the same setting: as for `CC[C@H](C)[C@H](NC(=O)[C@H](CC1CCCCC1)NC(=O)c1ccno1)C(=O)N1CCC(c2ccccc2-c2ccccc2)CC1` [Compound 34], the figure is 25 µM; as for `CC[C@H](C)[C@H](NC(=O)[C@H](CC1CCCCC1)NC(=O)c1ccno1)C(=O)N1CCC(Cc2ccccc2)CC1` [Compound 35], 8 µM. The same measure, in the same setting: the value for `CC[C@H](C)[C@H](NC(=O)[C@H](CC1CCCCC1)NC(=O)c1ccno1)C(=O)N1CCCC[C@H]1C(=O)NC(C)(C)C` [Compound 36] was 8.6 ± 2.6 µM. `CC[C@H](C)[C@H](NC(=O)[C@H](CC1CCCCC1)NC(=O)c1ccno1)C(=O)N1CCC2(CCc3ccccc3O2)CC1` [Compound 37, 5-isoxazoyl-Cha-Ile-spiro[chroman-2,4′-piperidine]]: on PAR2 [2] (setting [5]), the IC50 was in the range of 5 to 10 µM.

As for `CC[C@H](C)[C@H](NC(=O)[C@H](CC1CCCCC1)NC(=O)c1ccno1)C(=O)N1CCCC(Nc2cccc(C(F)(F)F)c2)C1` (some centres unmarked) [Compound 38], the IC50 at PAR2 [2] (setting [5]) amounted to 6 µM. On the same count and under the same terms, the value for `CC[C@H](C)[C@H](NC(=O)[C@H](CC1CCCCC1)NC(=O)c1ccno1)C(=O)N(C)Cc1ccccc1OC` [Compound 39, 5-isoxazoyl-Cha-Ile-aminodimethyl-(2-methoxy)phenyl] was 6.4 µM; that for `COc1ccccc1CNC(=O)[C@@H](NC(=O)[C@H](CC1CCCCC1)NC(=O)c1ccno1)[C@@H](C)OC` [Compound 40, 5-isoxazoyl-Cha-Thr(Me)-aminomethyl-(2-methoxy)phenyl] was 1.3 µM; that for `CC[C@H](C)[C@H](NC(=O)[C@H](CC1CCOCC1)NC(=O)c1ccno1)C(=O)N1CCC2(C=Cc3ccccc32)CC1` [Compound 43] was 60 µM.
